Laboratory results as given in US20070059364A1, “Active substance combination comprising a compound with npy receptor affinity and a compound with 5-ht6 receptor affinity” (Laboratorios Del Dr. Esteve S.A., priority 2003, published 2007).

| Compound | melting point |
| --- | --- |
| Cc1cccc2c1N(C1CCN(CC(=O)Nc3ccc(C(F)(F)F)cc3)CC1)C(=O)OC2.Cl | 264 to 274 °C |
| CN(C)CCn1ccc2cc(NS(=O)(=O)c3c(Cl)nc4sccn34)ccc21 [Example 11e, N-[1-(2-dimethylaminoethyl)-1H-indole-5-yl]-6-chloroimidazo[2,1-b]thiazole-5-sulfonamide] | 50 to 52 °C |
| Cc1c(S(=O)(=O)Nc2ccc3[nH]cc(CCN4CCOCC4)c3c2)sc2ccc(Cl)cc12 | 200 to 201 °C |
| CCN(CC)CCn1ccc2cc(NS(=O)(=O)c3csc4ccccc34)ccc21 [Example 41e, N-(1-(2-(diethylamino)ethyl)-1H-indol-5-yl)benzo[b]thiophene-3-sulfonamide] | 62 to 75 °C |
| CN(C)CCn1ccc2cc(NS(=O)(=O)c3cc(Cl)c(Cl)s3)ccc21 [Example 20e, N-[1-(2-dimethylaminoethyl)-1H-indole-5-yl]-4,5-dichlorothiophene-2-sulfonamide] | 120 to 123 °C |
| CCN(CC)CCc1c[nH]c2ccc(NS(=O)(=O)c3cc(Cl)cc(Cl)c3)cc12 [Example 4c, N-[3-(2-diethylaminoethyl)-1H-indol-5-yl]-3,5-dichlorobenzenesulphonamide] | 168 to 170 °C |
| Cl.O=C(CN1CCC(N2C(=O)OCc3cc(Cl)ccc32)CC1)Nc1ccc2c(c1)-c1ccccc1C2O (stereo not shown) | 219 to 222 °C |
| O=S(=O)(Nc1ccc2[nH]cc(CCN3CCCC3)c2c1)c1ccc2ccccc2c1 | 180 to 182 °C |
| CN1CCN(CCc2c[nH]c3ccc(NS(=O)(=O)c4ccc5ccccc5c4)cc23)CC1 | 129 to 131 °C |
| Cc1ccc2c(c1)COC(=O)N2C1CCN(CC(=O)Nc2ccccc2C(F)(F)F)CC1 | 169 to 173 °C |
| Cc1cccc2c1COC(=O)N2C1CCN(CC(=O)Nc2ccc3[nH]c4ccccc4c3c2)CC1 | 213 °C |
| Cc1cccc2c1COC(=O)N2C1CCN(CC(=O)Nc2ccc3oc4ccccc4c3c2)CC1 | 204 °C |
| Cc1ccc2c(c1)COC(=O)N2C1CCN(CC(=O)Nc2ccc3c(c2)C(=O)c2ccccc2-3)CC1.Cl | 281 to 285 °C |
| CN(C)CCn1ccc2cc(NS(=O)(=O)c3ccc(Cl)s3)ccc21 [Example 9e, N-[1-(2-dimethylaminoethyl)-1H-indole-5-yl]-5-chlorothiophene-2-sulfonamide] | 145 to 147 °C |
| Cc1cccc2c1N(C1CCN(CC(=O)Nc3ccc(Cl)cc3)CC1)C(=O)OC2.Cl | 245 to 253 °C |
| CN(C)CCn1ccc2cc(NS(=O)(=O)c3ccc(Oc4ccccc4)cc3)ccc21 [Example 7e, N-[1-(2-dimethylaminoethyl)-1H-indole-5-yl]-4-phenoxybenzenesulfonamide] | 138 to 140 °C |
| Cc1c(S(=O)(=O)Nc2ccc3c(ccn3CCN(C)C)c2)sc2ccc(Cl)cc12 [Example 1e, N-[1-(2-dimethylaminoethyl)-1H-indole-5-yl]-5-chloro-3-methylbenzo[b]thiophene-2-sulfonamide] | 71 to 73 °C |
| O=S(=O)(Nc1ccc2[nH]cc(CCN3CCOCC3)c2c1)c1cccc2cccnc12 | 234 to 235 °C |
| CCN(CC)CCc1c[nH]c2ccc(NS(=O)(=O)c3ccc(-c4ccccc4)cc3)cc12 [Example 5c, N-[3-(2-diethylaminoethyl)-1H-indol-5-yl]-4-phenylbenzenesulphonamide] | 161 to 163 °C |
| CN(C)CCn1ccc2cc(NS(=O)(=O)c3cccc4c(Cl)cccc34)ccc21 [Example 4e, N-[1-(2-dimethylaminoethyl)-1H-indole-5-yl]-5-chloronaphthalene-1-sulfonamide] | 172 to 174 °C |

| Compound | melting point |
| --- | --- |
| Cc1cccc2c1N(C1CCN(CC(=O)Nc3ccc(Oc4ccccc4)cc3)CC1)C(=O)OC2.Cl | 162 to 167 °C |
| Cc1c(S(=O)(=O)Nc2ccc3[nH]cc(C4CCN5CCCC5C4)c3c2)sc2ccc(Cl)cc12 (stereo not shown) [Example 38c, N-[3-(octahydroindolizin-7-yl)-1H-indol-5-yl]-5-chloro-3-methylbenzo[b]thiophene-2-sulphonamide] | 142 to 144 °C |
| Cl.O=C(CN1CCC(N2C(=O)OCc3cc(Cl)ccc32)CC1)Nc1ccc2c(c1)C(O)c1ccccc1-2 (stereo not shown) | 286 to 289 °C |
| Cl.O=C(CN1CCC(N2C(=O)OCc3ccccc32)CC1)Nc1ccc2c(c1)-c1ccccc1C2O (stereo not shown) | 270 to 273 °C |
| CN1CCC(c2c[nH]c3ccc(NS(=O)(=O)c4cccc5cccnc45)cc23)CC1 [Example 16c, N-[3-(1-methylpiperidin-4-yl)-1H-indol-5-yl]quinoline-8-sulphonamide] | 280 °C (dec.) |
| Cc1c(S(=O)(=O)Nc2ccc3[nH]cc(CN(C)C)c3c2)sc2ccc(Cl)cc12 [Example 30c, N-[3-dimethylaminomethyl-1H-indol-5-yl]-5-chloro-3-methylbenzo[b]thiophene-2-sulphonamide] | 148 to 152 °C |
| O=S(=O)(Nc1ccc2c(ccn2CCCN2CCCCC2)c1)c1cccc2ccccc12 [Example 45e, N-(1-(3-(piperidin-1-yl)propyl)-1H-indol-5-yl)naphthalene-1-sulfonamide] | 105 to 107 °C |
| Cc1c(S(=O)(=O)Nc2cccc3ccn(CCN(C)C)c23)sc2ccc(Cl)cc12 [Example 2g, N-[1-(2-dimethylaminoethyl)-1H-indole-7-yl]-5-chloro-3-methylbenzo[b]thiophene-2-sulfonamide] | 57 to 65 °C |
| O=S(=O)(Nc1ccc2ccn(CCN3CCCC3)c2c1)c1ccc(-c2ccccc2)cc1 [Example 13f, 4-Phenyl-N-(1-(2-(pyrrolidin-1-yl)ethyl)-1H-indol-6-yl)-benzenesulfonamide] | 178 to 181 °C |
| CCN(CC)CCc1c[nH]c2ccc(NS(=O)(=O)c3cccc4c(Cl)cccc34)cc12 | 154 to 156 °C |
| CN(C)CCn1ccc2cc(NS(=O)(=O)c3cccc([N+](=O)[O-])c3)ccc21 [Example 14e, N-[1-(2-dimethylaminoethyl)-1H-indole-5-yl]-3-nitrobenzenesulfonamide] | 138 to 140 °C |
| CN(C)CCn1ccc2cc(NS(=O)(=O)c3ccccc3)ccc21 | 139 to 141 °C |
| CCN(CC)CCc1c[nH]c2ccc(NS(=O)(=O)c3ccc(Cl)s3)cc12 [Example 6c, N-[3-(2-diethylaminoethyl)-1H-indol-5-yl]-5-chlorothiophene-2-sulphonamide] | 180 to 181 °C |
| Cl.O=C(CN1CCC(N2C(=O)OCc3ccccc32)CC1)Nc1ccc2c(c1)CCC2=O | 272 to 277 °C |
| CCN(CC)CCc1c[nH]c2ccc(N(CC)S(=O)(=O)c3ccc4ccccc4c3)cc12 | 49 to 50 °C |
| O=S(=O)(Nc1ccc2ccn(CCN3CCCC3)c2c1)c1c(Cl)nc2sccn12 [Example 12f, 6-Chloro-N-[1-[2-(pyrrolidin-1-yl)ethyl]-1H-indol-6-yl]-imidazo[2,1-b]thiazole-5-sulfonamide] | 53 to 57 °C |
| Cl.O=C(CN1CCC(N2C(=O)OCc3ccccc32)CC1)Nc1ccc2c(c1)C(=O)c1ccccc1C2=O | 280 to 282 °C |
| CN1CC=C(c2c[nH]c3ccc(NS(=O)(=O)c4cccc5ccccc45)cc23)CC1 | 244 to 245 °C (dec.) |
| CCN(CC)CCc1c[nH]c2ccc(NS(=O)(=O)c3c(Cl)nc4sccn34)cc12 | 197 to 198 °C |
| CC(C(=O)Nc1ccc2c(c1)-c1ccccc1C2=O)N1CCC(N2C(=O)OCc3ccccc32)CC1.Cl (stereo not shown) | 242 to 252 °C |
